Results published in patent publication US20080102127A1, “HYBRID LIPID-POLYMER NANOPARTICULATE DELIVERY COMPOSITION” (priority 2006, published 2008).

Test system: Escherichia Coli (strain O157)
Assay: Sepsis model induced in mice by Escherichia Coli (strain O157)
Format: in vivo
Conditions: BALB/c mice, E. coli O157 2.5×10^8 cells i.p.; single intravenous injection 25 mg/kg (antibiotic base) 4 h post infection; n=10
Description: Antibacterial efficacy of antibiotics in hybrid polymer-lipid nanoparticles was evaluated “in vivo” in a sepsis model, induced in mice (BALB/C line) by Escherichia Coli (strain O157). E. Coli O157 strain was chosen as a model infection as one of the most common pathogens that cause nosocomial infections.
Female BALB/c mice 6-8 weeks old were infected intraperitoneally with E. coli (strain O157) at a dose of 2.5×10^8 cells off E. coli per mouse.
The infected animals were randomized in groups (n=10) and received one of the following formulations: […]
Streptomycin formulations: 1) Saline; 2) Streptomycin solution in saline, 5 mg/ml 3) Streptomycin in hybrid polymer-lipid nanoparticles (Example 30 in Table 1), 5 mg/ml.
Gentamycin formulations: 1) Saline 2) Gentamycin solution in saline, 2.5 mg/ml; 3) Gentamycin in hybrid polymer-lipid nanoparticles (Example 24 in Table 1), 2.5 mg/ml.
The formulations were injected intraperitoneally (Streptomycin) or intravenously (Gentamycin) in the doses of 1×25 mg/kg (calculated by antibiotic base) 4 h post infection.

Gentamycin [Gentamycin solution in saline]
survival of the animals at Day 10: 20%
